Measurements: patent US20070021434A1, “NON-NUCLEOSIDE ANTI-HEPACIVIRUS AGENTS AND USES THEREOF” (Migenix Inc., priority 2005, published 2007)

Each compound was assayed against HCV RdRp (NS5B) (UniProt P26663).
Type: biochemical, hepatitis C virus

Chain of HCV RdRp (NS5B) (P26663 whole entry, looked up): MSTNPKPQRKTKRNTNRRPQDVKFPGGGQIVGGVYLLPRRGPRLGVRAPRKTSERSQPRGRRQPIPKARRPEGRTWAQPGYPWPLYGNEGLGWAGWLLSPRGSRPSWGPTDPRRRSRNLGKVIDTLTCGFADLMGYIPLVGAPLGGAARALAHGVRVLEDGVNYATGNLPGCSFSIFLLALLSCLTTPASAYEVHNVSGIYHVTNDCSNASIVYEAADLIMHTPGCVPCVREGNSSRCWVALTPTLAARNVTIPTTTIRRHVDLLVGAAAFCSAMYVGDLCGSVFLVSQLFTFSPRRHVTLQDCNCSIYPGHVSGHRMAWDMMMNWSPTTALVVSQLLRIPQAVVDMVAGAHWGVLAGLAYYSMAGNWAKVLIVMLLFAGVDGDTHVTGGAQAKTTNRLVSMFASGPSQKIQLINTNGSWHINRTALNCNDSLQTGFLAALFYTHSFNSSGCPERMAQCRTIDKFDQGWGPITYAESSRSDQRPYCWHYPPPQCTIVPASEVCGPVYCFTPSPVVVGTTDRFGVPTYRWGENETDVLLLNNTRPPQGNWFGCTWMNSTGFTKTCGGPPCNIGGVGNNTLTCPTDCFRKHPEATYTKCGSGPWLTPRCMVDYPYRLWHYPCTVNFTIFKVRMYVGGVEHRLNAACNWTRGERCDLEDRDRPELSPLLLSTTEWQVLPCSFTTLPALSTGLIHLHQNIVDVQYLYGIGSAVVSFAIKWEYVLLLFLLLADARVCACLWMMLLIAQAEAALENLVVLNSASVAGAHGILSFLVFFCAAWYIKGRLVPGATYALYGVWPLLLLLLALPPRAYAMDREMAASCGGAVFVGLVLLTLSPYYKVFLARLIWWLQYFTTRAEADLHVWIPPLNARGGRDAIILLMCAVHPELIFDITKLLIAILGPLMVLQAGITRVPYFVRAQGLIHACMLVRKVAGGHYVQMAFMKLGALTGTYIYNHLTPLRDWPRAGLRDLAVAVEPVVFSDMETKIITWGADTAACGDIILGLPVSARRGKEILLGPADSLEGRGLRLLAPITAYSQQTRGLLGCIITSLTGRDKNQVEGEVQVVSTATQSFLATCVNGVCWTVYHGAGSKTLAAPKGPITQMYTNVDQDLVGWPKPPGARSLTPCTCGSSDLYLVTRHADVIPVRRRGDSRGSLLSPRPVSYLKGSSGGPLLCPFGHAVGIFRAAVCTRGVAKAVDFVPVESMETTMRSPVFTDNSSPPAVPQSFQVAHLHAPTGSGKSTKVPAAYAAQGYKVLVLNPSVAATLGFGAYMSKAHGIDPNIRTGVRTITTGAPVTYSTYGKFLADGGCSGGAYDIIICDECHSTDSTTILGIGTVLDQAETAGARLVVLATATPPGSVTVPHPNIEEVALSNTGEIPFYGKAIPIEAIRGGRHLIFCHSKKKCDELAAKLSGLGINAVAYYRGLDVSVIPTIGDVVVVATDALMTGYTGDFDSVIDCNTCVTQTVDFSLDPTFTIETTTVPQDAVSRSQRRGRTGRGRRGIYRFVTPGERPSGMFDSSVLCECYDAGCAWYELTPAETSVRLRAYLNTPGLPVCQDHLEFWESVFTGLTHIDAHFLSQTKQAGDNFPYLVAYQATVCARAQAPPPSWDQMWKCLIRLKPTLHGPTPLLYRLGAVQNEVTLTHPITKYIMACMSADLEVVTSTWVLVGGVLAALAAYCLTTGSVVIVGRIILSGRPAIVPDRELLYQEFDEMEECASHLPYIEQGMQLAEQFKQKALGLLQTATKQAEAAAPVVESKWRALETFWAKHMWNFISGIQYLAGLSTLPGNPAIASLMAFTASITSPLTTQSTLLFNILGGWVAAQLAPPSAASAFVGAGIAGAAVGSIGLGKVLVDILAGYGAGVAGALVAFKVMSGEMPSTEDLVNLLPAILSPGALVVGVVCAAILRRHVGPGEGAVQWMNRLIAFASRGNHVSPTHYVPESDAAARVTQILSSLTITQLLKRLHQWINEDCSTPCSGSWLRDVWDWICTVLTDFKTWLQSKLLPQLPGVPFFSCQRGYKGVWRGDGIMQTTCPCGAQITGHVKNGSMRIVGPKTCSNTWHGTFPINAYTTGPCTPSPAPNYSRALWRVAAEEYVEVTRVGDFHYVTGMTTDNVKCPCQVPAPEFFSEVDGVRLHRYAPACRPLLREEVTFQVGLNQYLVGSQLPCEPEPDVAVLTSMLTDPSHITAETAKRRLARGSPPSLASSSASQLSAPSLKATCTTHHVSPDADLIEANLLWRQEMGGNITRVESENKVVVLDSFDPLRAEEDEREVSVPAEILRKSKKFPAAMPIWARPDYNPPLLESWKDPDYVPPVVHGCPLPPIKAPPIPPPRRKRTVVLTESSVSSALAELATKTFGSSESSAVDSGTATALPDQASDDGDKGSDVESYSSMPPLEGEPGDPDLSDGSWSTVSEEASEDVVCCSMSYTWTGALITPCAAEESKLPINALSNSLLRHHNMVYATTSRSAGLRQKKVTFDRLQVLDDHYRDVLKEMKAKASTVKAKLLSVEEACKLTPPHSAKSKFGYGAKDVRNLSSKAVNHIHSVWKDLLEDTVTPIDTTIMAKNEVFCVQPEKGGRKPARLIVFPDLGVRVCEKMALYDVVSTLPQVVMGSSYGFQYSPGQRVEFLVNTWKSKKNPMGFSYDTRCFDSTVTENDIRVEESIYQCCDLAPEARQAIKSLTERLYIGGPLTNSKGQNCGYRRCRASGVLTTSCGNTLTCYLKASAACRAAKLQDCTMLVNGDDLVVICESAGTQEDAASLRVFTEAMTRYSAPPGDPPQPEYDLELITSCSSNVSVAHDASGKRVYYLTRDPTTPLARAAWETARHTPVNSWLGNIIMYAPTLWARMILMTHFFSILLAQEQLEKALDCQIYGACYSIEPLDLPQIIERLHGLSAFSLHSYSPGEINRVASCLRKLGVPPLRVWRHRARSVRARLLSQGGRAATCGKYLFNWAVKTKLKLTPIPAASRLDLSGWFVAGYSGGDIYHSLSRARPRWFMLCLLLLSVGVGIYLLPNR

Cc1ccc(NC(=O)C(CCCNC(=O)C2CCCN2)NC(=O)OCC2c3ccccc3-c3ccccc32)cc1 [Compound 220, (S)-{4-[R-(PYRROLIDINE-2-CARBONYL)-AMINO]-1-P-TOLYLCARBAMOYL-BUTYL}-CARBAMIC ACID 9H-FLUOREN-9-YLMETHYL ESTER] and Cc1ccc(NC(=O)C(CCCN)NC(=O)OCC2c3ccccc3-c3ccccc32)cc1 [Compound 101, (S)-(4-AMINO-1-P-TOLYLCARBAMOYL-BUTYL)-CARBAMIC ACID 9H-FLUOREN-9-YLMETHYL ESTER] cannot be ordered by IC50: greater than 50 µM for the first, greater than 50 µM for the second.

Cc1ccc(NC(=O)C(CCCCN)NC(=O)C(N)Cc2cccc3ccccc23)cc1 [Compound 77, (S)-6-AMINO-2-(2-(S)-AMINO-3-NAPHTHALEN-1-YL-PROPIONYLAMINO)-HEXANOIC ACID P-TOLYLAMIDE] and Cc1ccc(NC(=O)C(CCCCN)NC(=O)Cc2cccc3ccccc23)cc1 [Compound 91, (S)-6-AMINO-2-(2-NAPHTHALEN-1-YL-ACETYLAMINO)-HEXANOIC ACID P-TOLYLAMIDE] cannot be ordered by IC50: greater than 50 µM for the first, greater than 50 µM for the second.

Cc1ccc(NC(=O)C(CCN)NC(=O)OCC2c3ccccc3-c3ccccc32)cc1 [Compound 108, (S)-(3-AMINO-1-P-TOLYLCARBAMOYL-PROPYL)-CARBAMIC ACID 9H-FLUOREN-9-YLMETHYL ESTER] and Cc1ccc(NC(=O)C(CN)NC(=O)OCC2c3ccccc3-c3ccccc32)cc1 [Compound 103, (S)-(2-AMINO-1-P-TOLYLCARBAMOYL-ETHYL)-CARBAMIC ACID 9H-FLUOREN-9-YLMETHYL ESTER] cannot be ordered by IC50: greater than 50 µM for the first, greater than 50 µM for the second.

Compared with CC(C)(C)c1ccc(NC(=O)[C@H](CCCCN)NC(=O)OCC2c3ccccc3-c3ccccc32)cc1 [Compound 105, (S)-[5-AMINO-1-(4-TERT-BUTYL-PHENYLCARBAMOYL)-PENTYL]-CARBAMIC ACID 9H-FLUOREN-9-YLMETHYL ESTER], NCCCC[C@H](NC(=O)OCC1c2ccccc2-c2ccccc21)C(=O)Nc1cccc(F)c1 [Compound 80, (S)-[5-AMINO-1-(3-FLUORO-PHENYLCARBAMOYL)-PENTYL]-CARBAMIC ACID 9H-FLUOREN-9-YLMETHYL ESTER] is higher in IC50: 10 to 50 µM for the first, greater than 50 µM for the second.

Cc1ccc(NC(=O)C(CCCCN)NC(=O)Nc2cc(C(F)(F)F)cc(C(F)(F)F)c2)cc1 [Compound 95, (S)-6-AMINO-2-[3-(3,5-BIS-TRIFLUOROMETHYL-PHENYL)-UREIDO]-HEXANOIC ACID P-TOLYLAMIDE] and Cc1ccc(NC(=O)C(CCCCN)NC(=O)Nc2ccc(Cc3ccccc3)cc2)cc1 [Compound 74, (S)-6-AMINO-2-[3-(4-BENZYL-PHENYL)-UREIDO]-HEXANOIC ACID P-TOLYLAMIDE] fall in the same range of IC50: 10 to 50 µM for the first, 10 to 50 µM for the second.

First: Cc1ccc(NC(=O)[C@H](CCCN)NC(=O)Nc2ccc3c(c2)Cc2ccccc2-3)cc1 [Compound 190, (S)-5-AMINO-2-[3-(9H-FLUOREN-2-YL)-UREIDO]-PENTANOIC ACID P-TOLYLAMIDE]
Second: Cc1ccc(NC(=O)C(CCCCN)NC(=O)Nc2cccc(-c3nc4ccccc4o3)c2)cc1 [Compound 257, (S)-6-AMINO-2-[3-(3-BENZOOXAZOL-2-YL-PHENYL)-UREIDO]-HEXANOIC ACID P-TOLYLAMIDE]
The IC50 of the first is lower: less than 10 µM for the first, greater than 50 µM for the second. The first is the more potent here.

First: Cc1ccc(NC(=O)[C@H](CCCCN)NC(=O)Nc2ccc(OCc3ccc(Cl)cc3)cc2)cc1 [Compound 273, (S)-6-AMINO-2-{3-[4-(4-CHLORO-BENZYLOXY)-PHENYL]-UREIDO}-HEXANOIC ACID P-TOLYLAMIDE]
Second: Cc1ccc(NC(=O)[C@H](CCCCN)NC(=O)Nc2ccc(OCc3cccnc3)cc2)cc1 [Compound 261, (S)-6-AMINO-2-{3-[4-(PYRIDIN-3-YLMETHOXY)-PHENYL]-UREIDO}-HEXANOIC ACID P-TOLYLAMIDE]
The IC50 of the first is lower: less than 10 µM for the first, greater than 50 µM for the second.

Cc1ccc(NC(=O)C(Cc2cccs2)NC(=O)OCC2c3ccccc3-c3ccccc32)cc1 [Compound 381, (S)-(2-THIOPHEN-2-YL-1-P-TOLYLCARBAMOYL-ETHYL)-CARBAMIC ACID 9H-FLUOREN-9-YLMETHYL ESTER] and Cc1ccc(NC(=O)C(CN)NC(=O)OCC2c3ccccc3-c3ccccc32)cc1 [Compound 401, (R)-(2-AMINO-1-P-TOLYLCARBAMOYL-ETHYL)-CARBAMIC ACID 9H-FLUOREN-9-YLMETHYL ESTER] cannot be ordered by IC50: greater than 50 µM for the first, greater than 50 µM for the second.

NCCCC[C@H](NC(=O)Nc1ccc(OCc2ccccc2)cc1)C(=O)NCCO [Compound 260, (S)-6-AMINO-2-[3-(4-BENZYLOXY-PHENYL)-UREIDO]-HEXANOIC ACID (2-HYDROXY-ETHYL)-AMIDE] and CCCCNC(=O)[C@H](CCCCN)NC(=O)Nc1ccc(OCc2ccccc2)cc1 [Compound 258, (S)-6-AMINO-2-[3-(4-BENZYLOXY-PHENYL)-UREIDO]-HEXANOIC ACID BUTYLAMIDE] cannot be ordered by IC50: greater than 50 µM for the first, greater than 50 µM for the second.

NCCCCCCNC(=O)[C@@H](NC(=O)OCC1c2ccccc2-c2ccccc21)c1ccccc1 [Compound 313, (S)-[(6-AMINO-HEXYLCARBAMOYL)-PHENYL-METHYL]-CARBAMIC ACID 9H-FLUOREN-9-YLMETHYL ESTER] and NCc1ccc(NC(=O)[C@@H](NC(=O)OCC2c3ccccc3-c3ccccc32)c2ccccc2)cc1 [Compound 315, (S)-[(4-AMINOMETHYL-PHENYLCARBAMOYL)-PHENYL-METHYL]-CARBAMIC ACID 9H-FLUOREN-9-YLMETHYL ESTER] fall in the same range of IC50: 10 to 50 µM for the first, 10 to 50 µM for the second.

NCC(=O)Nc1ccccc1NC(=O)CNC(=O)OCC1c2ccccc2-c2ccccc21 [Compound 311, {[2-(2-AMINO-ACETYLAMINO)-PHENYLCARBAMOYL]-METHYL}-CARBAMIC ACID 9H-FLUOREN-9-YLMETHYL ESTER] and Cc1ccc(NC(=O)C(NC(=O)OCC2c3ccccc3-c3ccccc32)C(C)O)cc1 [Compound 376, (2+/−,3S)-(2-HYDROXY-1-P-TOLYLCARBAMOYL-PROPYL)-CARBAMIC ACID 9H-FLUOREN-9-YLMETHYL ESTER] cannot be ordered by IC50: greater than 50 µM for the first, greater than 50 µM for the second.

COc1ccc(S(=O)(=O)N[C@@H](CCCCN)C(=O)Nc2ccc(C)cc2)cc1OC [Compound 386, (S)-6-AMINO-2-(3,4-DIMETHOXY-BENZENESULFONYLAMINO)-HEXANOIC ACID P-TOLYLAMIDE] and COc1ccc(CNC(=O)N[C@@H](CCCCN)C(=O)Nc2ccc(C)cc2)cc1 [Compound 139, (S)-6-AMINO-2-[3-(4-METHOXY-BENZYL)-UREIDO]-HEXANOIC ACID P-TOLYLAMIDE] cannot be ordered by IC50: greater than 50 µM for the first, greater than 50 µM for the second.

First: Cc1ccc(NC(=O)C(CCCCN)NC(=O)Nc2ccc(CN(C)c3ccc([N+](=O)[O-])cc3)cc2)cc1 [Compound 251, (S)-6-AMINO-2-[3-(4-{[METHYL-(4-NITRO-PHENYL)-AMINO]-METHYL}-PHENYL)-UREIDO]-HEXANOIC ACID P-TOLYLAMIDE]
Second: Cc1ccc(NC(=O)C(CCCCN)NC(=O)COc2ccc(-c3ccccc3)cc2)cc1 [Compound 326, (S)-6-AMINO-2-[2-(BIPHENYL-4-YLOXY)-ACETYLAMINO]-HEXANOIC ACID P-TOLYLAMIDE]
The IC50 of the first is lower: less than 10 µM for the first, greater than 50 µM for the second. The first is the more potent here.

First: NCCCCC(NC(=O)OCC1c2ccccc2-c2ccccc21)C(=O)NC1CCCCC1 (stereo in doubt) [Compound 22, (S)-(5-AMINO-1-CYCLOHEXYLCARBAMOYL-PENTYL)-CARBAMIC ACID 9H-FLUOREN-9-YLMETHYL ESTER]
Second: NCCCC[C@@H](NC(=O)OCC1c2ccccc2-c2ccccc21)C(=O)Nc1ccc(C2CCCCC2)cc1 [Compound 128, (R)-[5-AMINO-1-(4-CYCLOHEXYL-PHENYLCARBAMOYL)-PENTYL]-CARBAMIC ACID 9H-FLUOREN-9-YLMETHYL ESTER]
The IC50 of the first is higher: 10 to 50 µM for the first, less than 10 µM for the second.

NCCC[C@H](NC(=O)OCC1c2ccccc2-c2ccccc21)C(=O)Nc1ccc(CN(C(=O)c2ccco2)C2CCCCC2)cc1 [Compound 15, (S)-[4-AMINO-1-(4-{[CYCLOHEXYL-(FURAN-2-CARBONYL)-AMINO]-METHYL}-PHENYLCARBAMOYL)-BUTYL]-CARBAMIC ACID 9H-FLUOREN-9-YLMETHYL ESTER] and NCCCCC(NC(=O)Cc1cccc2ccccc12)C(=O)Nc1ccc(CN(C(=O)c2ccco2)C2CCCCC2)cc1 (stereo in doubt) [Compound 25, (S)-FURAN-2-CARBOXYLIC ACID {4-[6-AMINO-2-(2-NAPHTHALEN-1-YL-ACETYLAMINO)-HEXANOYLAMINO]-BENZYL}-CYCLOHEXYL-AMIDE] fall in the same range of IC50: 10 to 50 µM for the first, 10 to 50 µM for the second.

Compared with CC(C)(C)c1ccc(NC(=O)[C@H](Cc2ccc(CN)cc2)NC(=O)NCc2ccccc2)cc1 [Compound 148, (S)-3-(4-AMINOMETHYL-PHENYL)-2-(3-BENZYL-UREIDO)-N-(4-TERT-BUTYL-PHENYL)-PROPIONAMIDE], Cc1cc2cc(NC(=O)C(Cc3ccc(CN)cc3)NC(=O)Nc3ccc(-c4ccccc4)cc3)ccc2[nH]1 [Compound 234, (S)-3-(4-AMINOMETHYL-PHENYL)-2-(3-BIPHENYL-4-YL-UREIDO)—NR-(2-METHYL-1H-INDOL-5-YL)-PROPIONAMIDE] is lower in IC50: greater than 50 µM for the first, 10 to 50 µM for the second. The second is the more potent here.

First: NCCCC[C@H](NC(=O)Nc1ccc(OCc2ccccc2)cc1)C(=O)Nc1ccc2c(c1)CCC2 [Compound 283, (S)-6-AMINO-2-[3-(4-BENZYLOXY-PHENYL)-UREIDO]-HEXANOIC ACID INDAN-5-YLAMIDE]
Second: Cc1ccc(NC(=O)C(CCCCN)NC(=O)CNCc2cccc(C)c2)cc1 [Compound 339, (S)-6-AMINO-2-[2-(3-METHYL-BENZYLAMINO)-ACETYLAMINO]-HEXANOIC ACID P-TOLYLAMIDE]
The IC50 of the first is lower: 10 to 50 µM for the first, greater than 50 µM for the second. The first is the more potent here.

O=C(CC1CNCCN1C(=O)OCC1c2ccccc2-c2ccccc21)Nc1ccc(C2CCCCC2)cc1 (stereo not drawn) [Compound 155, 2-[(4-CYCLOHEXYL-PHENYLCARBAMOYL)-METHYL]-PIPERAZINE-1-CARBOXYLIC ACID 9H-FLUOREN-9-YLMETHYL ESTER] and O=C(CC1CNCCN1C(=O)Nc1ccc2c(c1)Cc1ccccc1-2)Nc1ccc(C2CCCCC2)cc1 (stereo not drawn) [Compound 162, 2-[(4-CYCLOHEXYL-PHENYLCARBAMOYL)-METHYL]-PIPERAZINE-1-CARBOXYLIC ACID (9H-FLUOREN-2-YL)-AMIDE] fall in the same range of IC50: 10 to 50 µM for the first, 10 to 50 µM for the second.

Going from Cc1ccc(NC(=O)CN(CCCCN)C(=O)OCC2c3ccccc3-c3ccccc32)cc1 [Compound 293, (4-AMINO-BUTYL)-(P-TOLYLCARBAMOYL-METHYL)-CARBAMIC ACID 9H-FLUOREN-9-YLMETHYL ESTER] to Cc1ccc(N(C)C(=O)C(CCCCN)NC(=O)OCC2c3ccccc3-c3ccccc32)cc1 [Compound 92, (S)-[5-AMINO-1-(METHYL-P-TOLYL-CARBAMOYL)-PENTYL]-CARBAMIC ACID 9H-FLUOREN-9-YLMETHYL ESTER], the IC50 rises from less than 10 µM to greater than 50 µM.

Cc1ccc(NC(=O)[C@@H](N)CCCCN)cc1 [Compound 114, (S)-2,6-DIAMINO-HEXANOIC ACID P-TOLYLAMIDE] showed an IC50 greater than 50 µM.
